# Measurements from ChEMBL document CHEMBL1201862, “PubChem BioAssay data set” (2004).
#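 Exposure lasted 48 hours, with cells grown in 96-well plates and compounds tested at five concentrations. The concentration for 50% growth inhibition is given as GI50.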 Activity calls are given as the source filed them. Rule as the data show it: active = GI50 up to about 1.1 µM and inactive = higher.
# Columns and labels:
# Assay in all cases: growth of human tumour cells (NCI), 48 h
# BT-549 = test system: BT-549
# TK-10 = test system: TK-10
# NCI-H522 = test system: NCI-H522
# HCT-116 = test system: HCT-116
# PC-3 = test system: PC-3
# DU-145 = test system: DU-145
# LOX IMVI = test system: LOX IMVI
# NCI-H460 = test system: NCI-H460
# 786-0 = test system: 786-0
# HOP-92 = test system: HOP-92
# Hs-578T = test system: Hs-578T
# MDA-MB-435 = test system: MDA-MB-435
# MDA-N = test system: MDA-N
# U-251 = test system: U-251
# CCRF-CEM = test system: CCRF-CEM
# SNB-75 = test system: SNB-75
# SK-OV-3 = test system: SK-OV-3
# KM12 = test system: KM12
# SF-268 = test system: SF-268
# HCC 2998 = test system: HCC 2998
# SR = test system: SR
# MCF7 = test system: MCF7
# IGROV-1 = test system: IGROV-1
# NCI-H23 = test system: NCI-H23
# OVCAR-5 = test system: OVCAR-5
# NCI-H226 = test system: NCI-H226
# HT-29 = test system: HT-29
# SK-MEL-28 = test system: SK-MEL-28
# A498 = test system: A498
# EKVX = test system: EKVX
# COLO 205 = test system: COLO 205
# RXF 393 = test system: RXF 393
# SW-620 = test system: SW-620
# CAKI-1 = test system: CAKI-1
# SK-MEL-2 = test system: SK-MEL-2
# UACC-257 = test system: UACC-257
# SF-539 = test system: SF-539
# A549 = test system: A549
# SNB-19 = test system: SNB-19
# OVCAR-4 = test system: OVCAR-4
# K562 = test system: K562
# SF-295 = test system: SF-295
# NCI/ADR-RES = test system: NCI/ADR-RES
# HL-60 = test system: HL-60
# HOP-62 = test system: HOP-62
# SK-MEL-5 = test system: SK-MEL-5
# UO-31 = test system: UO-31
# UACC-62 = test system: UACC-62
# Malme-3M = test system: Malme-3M
# ACHN = test system: ACHN
# OVCAR-3 = test system: OVCAR-3
# M14 = test system: M14
# MDA-MB-231 = test system: MDA-MB-231
# MOLT-4 = test system: MOLT-4
# SN12C = test system: SN12C
# T47D = test system: T47D
# HCT-15 = test system: HCT-15
# RPMI-8226 = test system: RPMI-8226
# OVCAR-8 = test system: OVCAR-8
smiles,measurement,setting,value
C=C(Cl)/C(=C\Br)CCC(Cl)C(C)C.C=C(Cl)/C(=C\Cl)CCC(Cl)C(C)C (centres undefined),GI50,BT-549,15.2 µM (inactive)
same,GI50,TK-10,19.8 µM (inactive)
same,GI50,NCI-H522,4.73 µM (inactive)
same,GI50,HCT-116,16.1 µM (inactive)
same,GI50,PC-3,19.8 µM (inactive)
same,GI50,DU-145,18 µM (inactive)
same,GI50,LOX IMVI,1.67 µM (inactive)
same,GI50,NCI-H460,18.1 µM (inactive)
same,GI50,786-0,15.3 µM (inactive)
same,GI50,HOP-92,15 µM (inactive)
same,GI50,Hs-578T,11.9 µM (inactive)
same,GI50,MDA-MB-435,15.3 µM (inactive)
same,GI50,MDA-N,15 µM (inactive)
same,GI50,U-251,16.4 µM (inactive)
same,GI50,CCRF-CEM,5.62 µM (inactive)
same,GI50,SNB-75,18 µM (inactive)
same,GI50,SK-OV-3,22.8 µM (inactive)
same,GI50,KM12,14.3 µM (inactive)
same,GI50,SF-268,18.6 µM (inactive)
same,GI50,HCC 2998,18.7 µM (inactive)
same,GI50,SR,6.53 µM (inactive)
same,GI50,MCF7,10.6 µM (inactive)
same,GI50,IGROV-1,14.7 µM (inactive)
same,GI50,NCI-H23,14.6 µM (inactive)
same,GI50,OVCAR-5,20.5 µM (inactive)
same,GI50,NCI-H226,23.4 µM (inactive)
same,GI50,HT-29,17.7 µM (inactive)
same,GI50,SK-MEL-28,17.2 µM (inactive)
same,GI50,A498,20.3 µM (inactive)
same,GI50,EKVX,18.7 µM (inactive)
same,GI50,COLO 205,26.3 µM (inactive)
same,GI50,RXF 393,11.3 µM (inactive)
same,GI50,SW-620,2.75 µM (inactive)
same,GI50,CAKI-1,17.8 µM (inactive)
same,GI50,SK-MEL-2,13.6 µM (inactive)
same,GI50,UACC-257,13.6 µM (inactive)
same,GI50,SF-539,18.2 µM (inactive)
same,GI50,A549,28 µM (inactive)
same,GI50,SNB-19,17.6 µM (inactive)
same,GI50,OVCAR-4,16.3 µM (inactive)
same,GI50,K562,4.03 µM (inactive)
same,GI50,SF-295,18.8 µM (inactive)
same,GI50,NCI/ADR-RES,27.5 µM (inactive)
same,GI50,HL-60,4.24 µM (inactive)
same,GI50,HOP-62,18.3 µM (inactive)
same,GI50,SK-MEL-5,13.9 µM (inactive)
same,GI50,UO-31,18.2 µM (inactive)
same,GI50,UACC-62,12.7 µM (inactive)
same,GI50,Malme-3M,15.1 µM (inactive)
same,GI50,ACHN,16.8 µM (inactive)
same,GI50,OVCAR-3,16.5 µM (inactive)
same,GI50,M14,17.4 µM (inactive)
same,GI50,MDA-MB-231,16.5 µM (inactive)
same,GI50,MOLT-4,6.52 µM (inactive)
same,GI50,SN12C,17.2 µM (inactive)
CC(=O)N(C)c1ccc(Nc2ccnc3ccc4nn(C)nc4c23)cc1,GI50,BT-549,31.8 µM (inactive)
same,GI50,TK-10,22.3 µM (inactive)
same,GI50,NCI-H522,19 µM (inactive)
same,GI50,HCT-116,19 µM (inactive)
same,GI50,PC-3,26.9 µM (inactive)
same,GI50,T47D,20.1 µM (inactive)
same,GI50,DU-145,28.6 µM (inactive)
same,GI50,LOX IMVI,16 µM (inactive)
same,GI50,786-0,26.9 µM (inactive)
same,GI50,Hs-578T,17.3 µM (inactive)
same,GI50,MDA-MB-435,39.3 µM (inactive)
same,GI50,MDA-N,36.1 µM (inactive)
same,GI50,U-251,33.5 µM (inactive)
same,GI50,CCRF-CEM,17.3 µM (inactive)
same,GI50,SNB-75,21.3 µM (inactive)
same,GI50,SK-OV-3,22.6 µM (inactive)
same,GI50,KM12,24.4 µM (inactive)
same,GI50,SF-268,24.8 µM (inactive)
same,GI50,SR,25.6 µM (inactive)
same,GI50,MCF7,13.4 µM (inactive)
same,GI50,NCI-H23,32.4 µM (inactive)
same,GI50,OVCAR-5,30.1 µM (inactive)
same,GI50,HCT-15,21.5 µM
same,GI50,NCI-H226,15.6 µM (inactive)
same,GI50,HT-29,29.4 µM (inactive)
same,GI50,SK-MEL-28,20.7 µM (inactive)
same,GI50,EKVX,24.3 µM (inactive)
same,GI50,COLO 205,19.1 µM (inactive)
same,GI50,RXF 393,16.9 µM (inactive)
same,GI50,SW-620,35.3 µM (inactive)
same,GI50,CAKI-1,12.2 µM (inactive)
same,GI50,SK-MEL-2,17.9 µM (inactive)
same,GI50,UACC-257,21.7 µM (inactive)
same,GI50,SF-539,19.2 µM (inactive)
same,GI50,RPMI-8226,20.3 µM (inactive)
same,GI50,A549,17.5 µM (inactive)
same,GI50,SNB-19,37.3 µM (inactive)
same,GI50,OVCAR-8,36.1 µM (inactive)
same,GI50,OVCAR-4,28.4 µM (inactive)
same,GI50,SF-295,21.8 µM (inactive)
same,GI50,NCI/ADR-RES,28.1 µM (inactive)
same,GI50,HL-60,18.4 µM (inactive)
same,GI50,HOP-62,26 µM (inactive)
same,GI50,SK-MEL-5,19.9 µM (inactive)
same,GI50,UO-31,9.02 µM (inactive)
same,GI50,UACC-62,16.1 µM (inactive)
same,GI50,Malme-3M,18.9 µM (inactive)
same,GI50,ACHN,13.7 µM (inactive)
same,GI50,OVCAR-3,19.3 µM (inactive)
same,GI50,M14,31.4 µM (inactive)
same,GI50,MOLT-4,13.6 µM (inactive)
same,GI50,SN12C,26 µM (inactive)
COc1ccc(CCc2ccc3c(c2)OCO3)cc1,GI50,BT-549,62.5 µM (inactive)
same,GI50,TK-10,> 100 µM (inactive)
same,GI50,NCI-H522,51.3 µM (inactive)
same,GI50,HCT-116,36.6 µM (inactive)
same,GI50,PC-3,34.6 µM (inactive)
same,GI50,DU-145,43 µM (inactive)
same,GI50,LOX IMVI,73.6 µM (inactive)
same,GI50,NCI-H460,> 100 µM (inactive)
same,GI50,786-0,> 100 µM (inactive)
same,GI50,HOP-92,36.8 µM (inactive)
same,GI50,Hs-578T,86.3 µM (inactive)
same,GI50,MDA-MB-435,19.6 µM (inactive)
same,GI50,MDA-N,28.9 µM (inactive)
same,GI50,U-251,33.7 µM (inactive)
same,GI50,CCRF-CEM,35.9 µM (inactive)
same,GI50,SNB-75,> 100 µM (inactive)
same,GI50,SK-OV-3,> 100 µM (inactive)
same,GI50,KM12,29.2 µM (inactive)
same,GI50,SF-268,> 100 µM (inactive)
same,GI50,HCC 2998,79.4 µM (inactive)
same,GI50,SR,17.5 µM (inactive)
same,GI50,MCF7,35.8 µM (inactive)
same,GI50,IGROV-1,70.5 µM (inactive)
same,GI50,NCI-H23,> 100 µM (inactive)
same,GI50,OVCAR-5,> 100 µM (inactive)
same,GI50,HCT-15,35.2 µM
same,GI50,NCI-H226,62.5 µM (inactive)
same,GI50,HT-29,28.7 µM (inactive)
same,GI50,SK-MEL-28,> 100 µM (inactive)
same,GI50,A498,> 100 µM (inactive)
same,GI50,EKVX,66.8 µM (inactive)
same,GI50,COLO 205,> 100 µM (inactive)
same,GI50,RXF 393,21.9 µM (inactive)
same,GI50,SW-620,32.8 µM (inactive)
same,GI50,CAKI-1,75.5 µM (inactive)
same,GI50,SK-MEL-2,31.5 µM (inactive)
same,GI50,UACC-257,77.1 µM (inactive)
same,GI50,SF-539,92 µM (inactive)
same,GI50,RPMI-8226,36.6 µM (inactive)
same,GI50,A549,68.9 µM (inactive)
same,GI50,SNB-19,> 100 µM (inactive)
same,GI50,OVCAR-8,> 100 µM (inactive)
same,GI50,OVCAR-4,68.7 µM (inactive)
same,GI50,K562,38.5 µM (inactive)
same,GI50,SF-295,65 µM (inactive)
same,GI50,NCI/ADR-RES,77.4 µM (inactive)
same,GI50,HL-60,21.4 µM (inactive)
same,GI50,HOP-62,> 100 µM (inactive)
same,GI50,SK-MEL-5,34.9 µM (inactive)
same,GI50,UACC-62,> 100 µM (inactive)
same,GI50,Malme-3M,> 100 µM (inactive)
same,GI50,ACHN,> 100 µM (inactive)
same,GI50,OVCAR-3,31.6 µM (inactive)
same,GI50,M14,49.8 µM (inactive)
same,GI50,MDA-MB-231,> 100 µM (inactive)
same,GI50,MOLT-4,34.7 µM (inactive)
same,GI50,SN12C,> 100 µM (inactive)
